According to US10829481B2, “Benzimidazole derivatives as modulators of ROR-gamma” (Vitae Pharmaceuticals, LLC, priority 2016, dated 2020):

Key:
[1] = molecular target: recombinant RORγ Ligand Binding Domain (LBD) protein (Homo sapiens (Human), UniProt P51449); assay: Radio-Ligand RORγ Binding Assay (Assay 1); settings: competition with 25-hydroxy [26,27-3H]-cholesterol, SPA
Procedure, shortened: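 Scintillation proximity competition against 25-hydroxy [26,27-^3H]-cholesterol (8.6 nM solution) for 6×His-GST-tagged RORγ LBD (24 nM solution) in HEPES pH 7.4 with CHAPS, β-octylglucopyranoside and DTT; semi-log compound dilutions, ~1 h total at rt with poly-Lys YSi beads. IC50 from four-parameter fit; Ki derived from [RL] and radioligand KD.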

[2] = molecular target: full-length RORγt in Jurkat cells (Homo sapiens (Human), UniProt P51449); assay: RORγt 5×RORE Assay in Jurkat Cells (Assay 2); assay type: cell-based; settings: 5×RORE Nanoluc luciferase reporter
Sequence of full-length RORγt in Jurkat cells (P51449 other isoform, or with tags, fused parts or gaps): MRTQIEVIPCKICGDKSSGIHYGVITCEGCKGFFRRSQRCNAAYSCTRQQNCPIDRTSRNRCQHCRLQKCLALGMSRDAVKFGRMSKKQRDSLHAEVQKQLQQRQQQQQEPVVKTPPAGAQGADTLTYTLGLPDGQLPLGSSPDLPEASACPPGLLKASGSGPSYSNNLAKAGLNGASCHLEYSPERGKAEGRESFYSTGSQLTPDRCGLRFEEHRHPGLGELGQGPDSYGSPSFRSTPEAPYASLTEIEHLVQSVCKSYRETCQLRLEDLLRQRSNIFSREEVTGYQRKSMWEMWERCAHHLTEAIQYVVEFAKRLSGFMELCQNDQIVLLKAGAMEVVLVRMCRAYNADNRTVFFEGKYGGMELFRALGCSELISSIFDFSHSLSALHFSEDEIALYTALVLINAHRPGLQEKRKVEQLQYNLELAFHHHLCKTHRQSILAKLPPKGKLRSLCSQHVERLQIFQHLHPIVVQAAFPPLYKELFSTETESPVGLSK

Sequence of recombinant RORγ Ligand Binding Domain (LBD) protein (P51449 269-508): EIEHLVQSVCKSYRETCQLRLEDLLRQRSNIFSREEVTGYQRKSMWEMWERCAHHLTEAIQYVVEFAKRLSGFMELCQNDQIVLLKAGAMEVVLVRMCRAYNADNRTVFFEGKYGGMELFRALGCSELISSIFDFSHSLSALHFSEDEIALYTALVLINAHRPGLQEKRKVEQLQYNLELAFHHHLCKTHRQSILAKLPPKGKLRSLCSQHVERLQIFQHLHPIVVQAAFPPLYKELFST

| Ki [1] [µM] | IC50 [2] [µM] | SMILES |
| --- | --- | --- |
| < 0.1 | < 0.1 | CCS(=O)(=O)c1ccc(CNC(=O)c2ccc3c(c2)nc(C(F)(F)F)n3Cc2cccc3c2OC(F)(F)O3)cc1 [I-25, 1-((2,2-difluorobenzo[d][1,3]dioxol-4-yl)methyl)-N-(4-(ethylsulfonyl)benzyl)-2-(trifluoromethyl)-1H-benzo[d]imidazole-5-carboxamide] |
| < 0.1 | < 0.1 | CCS(=O)(=O)c1ccc(CNC(=O)c2ccc3c(c2)nc(C2CC2)n3Cc2cccc3c2OC(F)(F)O3)cc1 [I-26, 2-cyclopropyl-1-((2,2-difluorobenzo[d][1,3]dioxol-4-yl)methyl)-N-(4-(ethylsulfonyl)benzyl)-1H-benzo[d]imidazole-5-carboxamide] |
| < 0.1 | < 0.1 | CCS(=O)(=O)c1ccc(CNC(=O)c2ccc3c(c2)nc(C2(F)CC2)n3Cc2cccc3c2OC(F)(F)O3)cc1 [I-27, 1-((2,2-difluorobenzo[d][1,3]dioxol-4-yl)methyl)-N-(4-(ethylsulfonyl)benzyl)-2-(1-fluorocyclopropyl)-1H-benzo[d]imidazole-5-carboxamide] |
| < 0.1 | < 0.1 | CCS(=O)(=O)c1ccc(CNC(=O)c2ccc3c(c2)nc(COC)n3Cc2cccc3c2OC(F)(F)O3)cc1 [I-28, 1-((2,2-difluorobenzo[d][1,3]dioxol-4-yl)methyl)-N-(4-(ethylsulfonyl)benzyl)-2-(methoxymethyl)-1H-benzo[d]imidazole-5-carboxamide] |
| < 0.1 | < 0.1 | CCc1nc2cc(C(=O)NCc3ccc(S(=O)(=O)CC)cc3)ccc2n1Cc1cccc2c1OC(F)(F)O2 [I-29, 1-((2,2-difluorobenzo[d][1,3]dioxol-4-yl)methyl)-2-ethyl-N-(4-(ethylsulfonyl)benzyl)-1H-benzo[d]imidazole-5-carboxamide] |
| < 0.1 | < 0.1 | CCS(=O)(=O)c1ccc(CNC(=O)c2ccc3c(c2)nc(C(C)(C)C)n3Cc2cccc3c2OC(F)(F)O3)cc1 [I-30, 2-(tert-butyl)-1-((2,2-difluorobenzo[d][1,3]dioxol-4-yl)methyl)-N-(4-(ethylsulfonyl)benzyl)-1H-benzo[d]imidazole-5-carboxamide] |
| < 0.1 | < 0.1 | CCS(=O)(=O)c1ccc(CNC(=O)c2ccc3c(c2)nc(C(C)C)n3Cc2cccc3c2OC(F)(F)O3)cc1 [I-31, 1-((2,2-difluorobenzo[d][1,3]dioxol-4-yl)methyl)-N-(4-(ethylsulfonyl)benzyl)-2-isopropyl-1H-benzo[d]imidazole-5-carboxamide] |
| < 0.1 | > 1 | CCS(=O)(=O)c1ccc(CNC(=O)c2ccc3c(c2)nc(C)n3Cc2cccc3c2OC(F)(F)O3)cc1 [I-32, 1-((2,2-difluorobenzo[d][1,3]dioxol-4-yl)methyl)-N-(4-(ethylsulfonyl)benzyl)-2-methyl-1H-benzo[d]imidazole-5-carboxamide] |
| < 0.1 | < 0.1 | CCS(=O)(=O)c1ccc(CNC(=O)c2ccc3c(c2)nc(CC(C)C)n3Cc2cccc3c2OC(F)(F)O3)cc1 [I-33, 1-((2,2-difluorobenzo[d][1,3]dioxol-4-yl)methyl)-N-(4-(ethylsulfonyl)benzyl)-2-isobutyl-1H-benzo[d]imidazole-5-carboxamide] |
| < 0.1 | < 0.1 | CS(=O)(=O)c1ccc(CNC(=O)c2ccc3c(c2)nc(C2CC2)n3Cc2cccc3c2OC(F)(F)O3)cc1 [I-34, 2-cyclopropyl-1-((2,2-difluorobenzo[d][1,3]dioxol-4-yl)methyl)-N-(4-(methylsulfonyl)benzyl)-1H-benzo[d]imidazole-5-carboxamide] |
| < 0.1 | < 0.1 | CNS(=O)(=O)c1ccc(CNC(=O)c2ccc3c(c2)nc(C2CC2)n3Cc2cccc3c2OC(F)(F)O3)cc1 [I-35, 2-cyclopropyl-1-((2,2-difluorobenzo[d][1,3]dioxol-4-yl)methyl)-N-(4-(N-methylsulfamoyl)benzyl)-1H-benzo[d]imidazole-5-carboxamide] |
